According to ChEMBL document CHEMBL1201862, “PubChem BioAssay data set” (2004):
Calls of active or inactive are those of the source.

Experiments:
[1] = tested on: Staphylococcus aureus; assay: Inhibitors of Bacterial Quorum Sensing Structure Activity Relationship (SAR) Analysis: Dose Response Assay. [Related pubchem assays: 700, 527 ]; assay type: functional, organism-based
[2] = target: T1, Dual specificity protein phosphatase 6 (Rattus norvegicus, UniProt Q64346)
T1 sequence (Q64346 whole entry): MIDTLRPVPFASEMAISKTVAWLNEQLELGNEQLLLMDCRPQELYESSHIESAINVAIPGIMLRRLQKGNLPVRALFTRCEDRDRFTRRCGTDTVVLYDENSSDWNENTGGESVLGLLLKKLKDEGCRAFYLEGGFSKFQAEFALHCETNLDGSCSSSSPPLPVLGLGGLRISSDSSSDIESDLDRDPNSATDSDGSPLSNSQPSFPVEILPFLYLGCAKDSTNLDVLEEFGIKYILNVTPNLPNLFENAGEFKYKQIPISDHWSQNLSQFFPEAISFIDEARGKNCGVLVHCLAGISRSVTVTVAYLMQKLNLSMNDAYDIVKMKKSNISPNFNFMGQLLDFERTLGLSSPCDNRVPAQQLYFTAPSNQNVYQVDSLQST

[3] = target: T2, Tyrosine-protein phosphatase non-receptor type 7 (Homo sapiens, UniProt P35236); assay type: functional
T2 sequence (P35236 whole entry): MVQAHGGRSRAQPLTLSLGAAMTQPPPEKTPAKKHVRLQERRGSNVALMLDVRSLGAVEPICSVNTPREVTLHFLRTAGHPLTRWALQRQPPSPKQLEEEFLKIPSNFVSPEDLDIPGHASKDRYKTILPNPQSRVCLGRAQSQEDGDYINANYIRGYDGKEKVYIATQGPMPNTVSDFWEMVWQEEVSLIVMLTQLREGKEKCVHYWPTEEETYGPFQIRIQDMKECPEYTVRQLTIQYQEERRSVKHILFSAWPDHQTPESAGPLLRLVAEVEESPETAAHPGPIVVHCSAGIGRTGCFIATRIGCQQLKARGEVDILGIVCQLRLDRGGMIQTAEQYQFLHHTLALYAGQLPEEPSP

[4] = target: T1, Dual specificity protein phosphatase 6; assay type: functional
[5] = target: Glyceraldehyde-3-phosphate dehydrogenase (Homo sapiens, UniProt P04406)
[6] = target: Neurotensin receptor type 1 (Homo sapiens, UniProt P30989); assay type: functional;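 also: Image-based confirmatory dose-response assay measuring agonist activity at NTR1; NTR1-expressing U2OS osteosarcoma cells imaged for beta-arrestin GFP spot formation; agonist potency where compounds increase beta-arrestin recruitment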
[7] = tested on: INS1; assay: INS-1E survival protection against cytokine death – cell-based, luminescence, retest, dose response (AID 449756); assay type: functional; conditions: Rattus norvegicus;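 also: cell death triggered by IL-1 beta plus TNF-alpha plus IFN-gamma mixture; protective hits raise ATP signal compared with cytokine alone wells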
[8] = Luminescence Cell-Based Dose Retest to Confirm Inhibitors of Cancer Stem Cells. [Related pubchem assays (depositor defined):AID2717, AID2721]; assay type: functional; conditions: Homo sapiens
[9] = target: NACHT, LRR and PYD domains-containing protein 3 (Homo sapiens, UniProt Q96P20); assay: NALP3 inhibitors in yeast, dose response, luminescent (AID 488799); assay type: functional
[10] = target: T3, Polyadenylate-binding protein 1 (Homo sapiens, UniProt P11940); assay: MLLE binding blockers, Cy5 peptide tracer – biochemical, fluorescence polarization, Cy5-PAM2 peptide, secondary, miRNA deadenylation inhibitor project, dose response (AID 602260); assay type: functional; conditions: read-out: IC50_Mean
[11] = target: T3, Polyadenylate-binding protein 1; assay: MLLE domain peptide-binding blockers, IC50 – biochemical, fluorescence polarization, FITC-PAM2 peptide, dose response (AID 602259); assay type: functional; conditions: read-out: IC50_Mean
[12] = target: Female germline-specific tumor suppressor gld-1 (Caenorhabditis elegans, UniProt Q17339); assay: blockers of GLD-1/TGE RNA complex formation – biochemical, fluorescence polarization, C. elegans, dose response (AID 2802);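 also: fluorescence polarization of labeled TGE RNA bound by purified gld-1 protein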
[13] = target: Protein Rev (Human immunodeficiency virus type 1 group M subtype B (isolate HXB2)(HIV-1), UniProt P04618); assay: blockers of HIV Rev/RRE RNA complex – biochemical, fluorescence polarization, HIV-1, dose response (AID 434976); set-up: species or system Human immunodeficiency virus 1
[14] = tested on: Streptococcus; assay: Luminescence Microorganism-Based Dose Response Follow up to Identify Compounds Cytotoxic to Streptococcus. [Related pubchem assays: 1677 (Project Summary), 1915, 1914, 1902 (Retest at Dose), 1900 (Counter Screen), 1662 (Primary HTS)]; assay type: functional, organism-based
[15] = target: Dual specificity protein phosphatase 3 (Homo sapiens, UniProt P51452); assay: inhibition constants for human DUSP3 – biochemical, colorimetric, SAR follow-up (AID 2004)
[16] = target: Beta-lactamase (Salmonella choleraesuis (strain SC-B67), UniProt Q5J463)
[17] = target: Beta-lactamase (Pseudomonas aeruginosa, UniProt Q79MP6);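 also: biochemical dose-response test of metallo-beta-lactamase enzyme inhibition, read out by epi-absorbance; purified recombinant IMP-1 metallo-beta-lactamase with nitrocefin as substrate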
[18] = mitochondrial function rescue without frataxin homolog – Friedreich's ataxia, plus single-dose screen, dose response (AID 1465); assay type: functional;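 also: yeast depleted of Yfh1p frataxin homolog grown on glycerol needing respiration; WST-1 tetrazolium dye reduction as measure of cellular dehydrogenase metabolic activity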
[19] = target: G-protein coupled receptor 35 (Homo sapiens, UniProt Q9HC97); assay: inhibition of zaprinast-stimulated GPR35 beta-arrestin translocation – imaging, U2OS, beta-arrestin-GFP, zaprinast agonist, primary screen (AID 2058); assay type: functional;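 also: antagonist potency meaning inhibition of agonist-induced arrestin redistribution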
[20] = target: T4, Calpain-2 catalytic subunit (Sus scrofa, UniProt P43367); assay: m-calpain protease blockers, concentration series – biochemical, fluorogenic peptide substrate, dose response (AID 1420); assay type: functional
T4 sequence (P43367 whole entry): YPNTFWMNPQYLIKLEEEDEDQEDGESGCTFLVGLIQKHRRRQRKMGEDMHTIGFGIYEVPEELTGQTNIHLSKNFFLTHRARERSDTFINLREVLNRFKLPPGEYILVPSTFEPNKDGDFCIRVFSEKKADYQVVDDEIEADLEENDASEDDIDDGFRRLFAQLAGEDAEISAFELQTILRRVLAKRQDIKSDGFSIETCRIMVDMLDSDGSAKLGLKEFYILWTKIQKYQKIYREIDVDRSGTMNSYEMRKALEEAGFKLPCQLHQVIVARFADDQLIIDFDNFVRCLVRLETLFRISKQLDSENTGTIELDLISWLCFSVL

[21] = target: T5, Leucine aminopeptidase (Plasmodium falciparum 3D7, UniProt Q8IL11); assay: P. falciparum M17LAP inhibitors, primary screen, biochemical, fluorogenic H-Leu-NHMec substrate, 1536-well (AID 1619); assay type: functional
T5 sequence (Q8IL11 whole entry): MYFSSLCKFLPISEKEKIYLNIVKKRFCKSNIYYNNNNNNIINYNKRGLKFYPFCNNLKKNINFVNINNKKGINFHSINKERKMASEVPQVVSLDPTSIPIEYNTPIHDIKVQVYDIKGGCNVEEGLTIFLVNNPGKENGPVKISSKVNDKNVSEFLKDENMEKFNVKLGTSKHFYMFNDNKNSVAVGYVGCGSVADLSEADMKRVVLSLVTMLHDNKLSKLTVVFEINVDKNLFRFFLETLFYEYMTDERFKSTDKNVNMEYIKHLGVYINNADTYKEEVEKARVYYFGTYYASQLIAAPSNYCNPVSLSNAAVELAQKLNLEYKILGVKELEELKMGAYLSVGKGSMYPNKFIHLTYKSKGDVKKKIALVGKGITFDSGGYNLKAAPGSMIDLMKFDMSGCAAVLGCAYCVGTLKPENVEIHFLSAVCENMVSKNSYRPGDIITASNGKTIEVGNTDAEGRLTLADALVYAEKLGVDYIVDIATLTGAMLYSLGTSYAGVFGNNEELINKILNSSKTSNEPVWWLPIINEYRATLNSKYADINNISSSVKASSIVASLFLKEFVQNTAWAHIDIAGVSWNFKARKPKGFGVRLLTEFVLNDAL

T3 sequence (P11940 whole entry, the tested form may be a part): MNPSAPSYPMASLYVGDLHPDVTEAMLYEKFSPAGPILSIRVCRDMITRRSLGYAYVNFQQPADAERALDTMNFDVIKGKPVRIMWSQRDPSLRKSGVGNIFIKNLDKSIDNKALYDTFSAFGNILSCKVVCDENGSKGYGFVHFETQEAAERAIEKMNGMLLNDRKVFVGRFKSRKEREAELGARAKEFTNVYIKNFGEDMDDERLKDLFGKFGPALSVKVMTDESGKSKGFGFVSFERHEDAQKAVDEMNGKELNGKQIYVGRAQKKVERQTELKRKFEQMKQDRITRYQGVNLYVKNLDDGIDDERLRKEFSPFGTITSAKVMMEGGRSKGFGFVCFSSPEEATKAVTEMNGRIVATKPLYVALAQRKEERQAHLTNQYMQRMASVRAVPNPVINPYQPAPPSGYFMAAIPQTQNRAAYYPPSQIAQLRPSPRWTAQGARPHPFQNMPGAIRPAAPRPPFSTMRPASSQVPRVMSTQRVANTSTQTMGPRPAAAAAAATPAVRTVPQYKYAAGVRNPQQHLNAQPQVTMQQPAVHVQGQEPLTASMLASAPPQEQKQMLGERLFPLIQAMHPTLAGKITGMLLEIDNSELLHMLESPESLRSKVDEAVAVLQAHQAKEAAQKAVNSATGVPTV
Sequence of Neurotensin receptor type 1 (P30989 whole entry): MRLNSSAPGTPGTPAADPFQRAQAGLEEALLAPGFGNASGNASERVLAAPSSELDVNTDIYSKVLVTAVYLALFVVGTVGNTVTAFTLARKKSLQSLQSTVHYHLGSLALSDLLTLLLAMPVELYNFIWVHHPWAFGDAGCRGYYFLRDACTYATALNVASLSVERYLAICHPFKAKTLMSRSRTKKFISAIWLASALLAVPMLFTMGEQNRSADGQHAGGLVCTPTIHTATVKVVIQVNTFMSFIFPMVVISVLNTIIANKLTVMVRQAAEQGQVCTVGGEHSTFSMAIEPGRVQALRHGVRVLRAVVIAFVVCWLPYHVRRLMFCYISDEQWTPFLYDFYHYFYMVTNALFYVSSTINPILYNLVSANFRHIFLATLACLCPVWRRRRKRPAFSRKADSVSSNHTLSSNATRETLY
Sequence of Female germline-specific tumor suppressor gld-1 (Q17339 whole entry): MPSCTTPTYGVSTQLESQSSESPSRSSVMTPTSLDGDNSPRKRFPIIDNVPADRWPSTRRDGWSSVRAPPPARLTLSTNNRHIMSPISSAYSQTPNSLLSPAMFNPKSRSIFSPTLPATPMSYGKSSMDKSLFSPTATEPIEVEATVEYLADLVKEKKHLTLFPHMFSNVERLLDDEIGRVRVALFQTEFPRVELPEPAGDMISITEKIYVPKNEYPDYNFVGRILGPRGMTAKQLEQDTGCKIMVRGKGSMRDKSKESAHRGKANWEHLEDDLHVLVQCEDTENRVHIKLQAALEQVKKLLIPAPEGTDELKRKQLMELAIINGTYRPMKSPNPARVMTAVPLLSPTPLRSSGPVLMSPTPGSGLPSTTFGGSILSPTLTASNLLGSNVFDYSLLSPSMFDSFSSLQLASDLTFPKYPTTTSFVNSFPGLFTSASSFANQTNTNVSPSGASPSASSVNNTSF
Sequence of Glyceraldehyde-3-phosphate dehydrogenase (P04406 whole entry): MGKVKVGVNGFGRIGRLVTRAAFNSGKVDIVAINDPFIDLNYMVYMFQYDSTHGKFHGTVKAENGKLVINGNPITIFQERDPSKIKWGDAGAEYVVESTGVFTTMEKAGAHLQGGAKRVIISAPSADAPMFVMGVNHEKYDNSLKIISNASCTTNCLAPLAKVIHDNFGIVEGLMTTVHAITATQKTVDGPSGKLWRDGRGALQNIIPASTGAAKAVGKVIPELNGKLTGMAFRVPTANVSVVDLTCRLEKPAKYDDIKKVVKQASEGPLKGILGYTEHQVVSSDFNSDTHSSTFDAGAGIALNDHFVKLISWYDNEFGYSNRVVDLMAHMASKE
Sequence of Beta-lactamase (Salmonella choleraesuis (strain SC-B67), UniProt Q5J463) (Q5J463 whole entry): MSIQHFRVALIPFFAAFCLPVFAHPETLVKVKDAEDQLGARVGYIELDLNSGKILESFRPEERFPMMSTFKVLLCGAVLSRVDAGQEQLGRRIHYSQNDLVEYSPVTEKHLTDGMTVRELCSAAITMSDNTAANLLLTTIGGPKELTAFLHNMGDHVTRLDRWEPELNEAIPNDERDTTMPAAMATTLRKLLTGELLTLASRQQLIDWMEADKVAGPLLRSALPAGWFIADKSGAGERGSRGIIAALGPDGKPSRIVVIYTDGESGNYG
Sequence of Dual specificity protein phosphatase 3 (P51452 whole entry): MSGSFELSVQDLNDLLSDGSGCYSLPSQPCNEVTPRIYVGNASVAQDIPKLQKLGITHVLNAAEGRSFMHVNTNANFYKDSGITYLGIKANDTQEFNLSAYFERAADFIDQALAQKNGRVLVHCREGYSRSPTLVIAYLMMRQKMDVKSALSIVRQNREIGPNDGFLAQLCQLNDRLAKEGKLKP
Sequence of Beta-lactamase (Pseudomonas aeruginosa, UniProt Q79MP6) (Q79MP6 whole entry): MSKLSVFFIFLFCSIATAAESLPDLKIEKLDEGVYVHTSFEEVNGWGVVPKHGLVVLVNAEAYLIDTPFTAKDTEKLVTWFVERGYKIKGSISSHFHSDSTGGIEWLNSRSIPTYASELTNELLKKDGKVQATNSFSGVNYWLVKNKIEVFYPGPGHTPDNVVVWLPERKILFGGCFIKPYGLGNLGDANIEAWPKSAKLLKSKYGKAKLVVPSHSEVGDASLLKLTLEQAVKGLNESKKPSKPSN
Sequence of Protein Rev (P04618 whole entry): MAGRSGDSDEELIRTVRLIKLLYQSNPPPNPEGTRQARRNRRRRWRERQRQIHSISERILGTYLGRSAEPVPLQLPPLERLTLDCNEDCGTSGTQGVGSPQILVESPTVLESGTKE
Sequence of G-protein coupled receptor 35 (Q9HC97 whole entry): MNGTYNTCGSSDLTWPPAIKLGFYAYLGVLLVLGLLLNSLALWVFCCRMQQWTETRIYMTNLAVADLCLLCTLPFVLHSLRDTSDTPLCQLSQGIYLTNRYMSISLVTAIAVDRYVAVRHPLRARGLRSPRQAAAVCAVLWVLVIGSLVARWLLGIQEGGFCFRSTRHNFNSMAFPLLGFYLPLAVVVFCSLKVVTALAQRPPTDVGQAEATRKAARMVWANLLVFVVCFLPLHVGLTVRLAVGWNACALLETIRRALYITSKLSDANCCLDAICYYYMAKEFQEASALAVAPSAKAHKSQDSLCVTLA
Sequence of NACHT, LRR and PYD domains-containing protein 3 (Q96P20 whole entry, the tested form may be a part): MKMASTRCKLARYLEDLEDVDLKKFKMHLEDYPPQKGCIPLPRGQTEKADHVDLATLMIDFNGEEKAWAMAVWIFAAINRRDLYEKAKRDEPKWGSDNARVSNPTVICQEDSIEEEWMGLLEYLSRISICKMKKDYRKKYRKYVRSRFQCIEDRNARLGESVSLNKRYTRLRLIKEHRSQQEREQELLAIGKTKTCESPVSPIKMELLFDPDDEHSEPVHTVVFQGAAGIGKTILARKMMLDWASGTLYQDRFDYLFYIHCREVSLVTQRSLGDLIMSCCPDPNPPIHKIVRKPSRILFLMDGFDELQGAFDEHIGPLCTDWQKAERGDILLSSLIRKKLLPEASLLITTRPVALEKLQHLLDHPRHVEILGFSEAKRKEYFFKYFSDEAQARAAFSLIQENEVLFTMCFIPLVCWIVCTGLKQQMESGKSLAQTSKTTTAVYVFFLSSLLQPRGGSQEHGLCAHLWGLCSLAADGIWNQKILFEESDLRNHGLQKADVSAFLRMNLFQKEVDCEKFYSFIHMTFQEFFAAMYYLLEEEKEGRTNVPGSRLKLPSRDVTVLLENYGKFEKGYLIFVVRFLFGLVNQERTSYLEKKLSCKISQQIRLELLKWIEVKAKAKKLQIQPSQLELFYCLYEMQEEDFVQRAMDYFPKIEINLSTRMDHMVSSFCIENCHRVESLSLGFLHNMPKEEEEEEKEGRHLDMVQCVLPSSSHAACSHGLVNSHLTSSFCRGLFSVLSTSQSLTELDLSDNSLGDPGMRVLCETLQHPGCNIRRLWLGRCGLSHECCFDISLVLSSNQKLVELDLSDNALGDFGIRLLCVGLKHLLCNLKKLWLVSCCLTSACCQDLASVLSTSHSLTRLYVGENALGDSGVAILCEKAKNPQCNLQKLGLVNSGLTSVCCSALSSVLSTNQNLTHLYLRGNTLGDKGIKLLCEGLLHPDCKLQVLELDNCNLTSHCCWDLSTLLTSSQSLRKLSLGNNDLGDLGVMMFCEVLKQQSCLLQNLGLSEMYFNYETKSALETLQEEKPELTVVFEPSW

## CC(=O)c1cc2c(cc1NC(=O)CN1CCN(C(c3ccccc3)c3ccccc3)CC1)OCO2
[1]
  IC50: 1.51 µM (active)

## Cn1c(SCC(=O)O)nc2sc3c(c2c1=O)CCC3
[2]
  IC50: > 100 µM (inactive)
[3]
  IC50: > 100 µM (not active)
[4]
  IC50: > 100 µM (inactive)
[5]
  IC50: > 100 µM (not active)

## COc1cc(OC)c2cc(C(=O)N/N=C/c3cccc(OC)c3O)[nH]c2c1
[6]
  EC50: 19.3 µM (active)
[7]
  AC50: 3.8 µM (active)
[8]
  AC50: 3.97 µM (active)

## COc1cccc(NC(=O)c2ccccc2)c1
[9]
  IC50: 13.7 µM (active)

## COc1ccc2nc(N3CCCCC3)c(C#N)cc2c1
[10]
  IC50: > 66 µM (inactive)
[11]
  IC50: 18.5 µM (active)
[12]
  IC50: 6.28 µM (active)
[13]
  IC50: 14.8 µM (not active)

## CC(C)(C)N/N=C1\CC(c2ccccc2)Oc2ccccc21 (stereo unspecified)
[14]
  EC50: > 500 µM (not active)

## CC(Oc1ccc2oc(-c3ccccc3)c(C(=O)O)c2c1)C(=O)O (stereo unspecified)
[15]
  Ki: 102 µM (inactive)

## CN1CCN(C2=CC3=CC(=C(C#N)C#N)CCC3CC2)CC1 (stereo unspecified)
[16]
  IC50: 2.28 µM (active)
[17]
  IC50: 3.5 µM (active)
[18]
  EC50: > 100 µM (active)
[19]
  IC50: 2.76 µM (active)
[20]
  IC50: 13.9 µM (not active)
[21]
  IC50: 100 µM (active)
